Entries after “also recorded” stand apart in the source; their conditions may differ. Where two headings read alike, the source gives them in different places.

The target of data set [1] is T1, Aβ plaques (Homo sapiens, UniProt P05067).
T1 construct: from tissue; host or cells: brain of APPsw+/-/PS1 (and APPsw+/-) transgenic mice: sections ex vivo, and live animals for multiphoton imaging
Nature of the data set: Ex vivo staining of mouse brain sections. The data set is classed as binding. To be noted: APPsw+/− mice, 24 months old. The procedure:
FIG. 2 illustrates ex vivo staining studies were performed on brain sections (50 μm) of an APPsw^+/−/PS1 mouse (24 months old) and a control WT mouse (BL/6; 24 months old) using well-established procedures. Briefly, tissue sections were immunostained with mouse monoclonal antibody and visualized by donkey-anti-mouse HJ3.4 Aβ monoclonal antibody-Alexa 568 as a positive control. […] By comparison, no staining in WT mice was seen either with F-AI-182 or the antibody indicating the targeting specificity of F-AI-182. The slides were analyzed on a Zeiss LSM 5 PASCAL confocal system coupled to a Zeiss Axiovert 200 microscope.
The slides were analyzed using a Nikon Ti-E PFS inverted microscope equipped with a Nikon 10x 0.3 NA Plan APO objective, Prior H117 ProScan flat top linear encoded stage, and Prior Lumen 200PRO illumination system with standard DAPI and FITC filter sets. The images were acquired using a Photometrics CoolSNAP HQ2 digital camera and MetaMorph microscopy automaton, and imaging software. Images were processed and analyzed using the Image J software package (NIH).

The next data set deals with T2, preformed Aβ1-42 fibrils (Homo sapiens, UniProt P05067).
T2 construct: preformed Aβ1-42 fibrils
T2 sequence (P05067 672-713 limits assumed): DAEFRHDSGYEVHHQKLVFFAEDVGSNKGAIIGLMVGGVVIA
Nature of the data set: Binding assay with preformed Aβ1-42 fibrils/aggregates in PBS (fluorescence). An excerpt: In some embodiments of the present teachings, binding assays to preformed fibrils or AD brain homogenate extracts can be performed using literature procedures (Klunk, W., et al. Uncharged thioflavin-T derivatives bind to amyloid-beta protein with high affinity and readily enter the brain. Life Sci 69, 1471-1484 (2001); Zhen, W., et al. Synthesis and amyloid binding properties of rhenium complexes: preliminary progress towards a reagent for SPECT imaging of Alzheimer's disease brain. J Med Chem 42, 2805-2815 (1999)). Prior to binding assays, the stock solution (2 μM) can be thawed. To aliquots of this stock solution, ^18F-AI-182 (also exemplified for either ^18F-AI-183 or ^18F-AI-187) can be added at various concentrations to a final concentration of 200 nM Aβ fibrils or 200 μL of AD brain extracts (20-25 μg). The aggregate-bound ^18F-AI-182 (or other analogues) can be collected on Whatman GF filters using Brandon M-24R cell harvester, washed, and counted in a γ-counter (Perkin Elmer). Inhibition constants (Ki) can be calculated as described previously (Han, H., Cho, C. & Lansbury, P. J. Technetium complexes for quantification of brain amyloid. J Am Chem Soc 118, 4506-4508 (1996)). Binding assay results can assist in evaluation of target specificity.
Binding assays of F-AI-182 with preformed Aβ1-42 aggregates were performed in PBS. […] Fluorescence was not observed using Aβ aggregates alone in PBS upon excitation at 410 nm (a negative control). […] Comparative analyses can be performed with other compounds such as AV-45, BAYER 94-9172, and AZD4694. An agent can be interacting with either of the two modestly high affinity binding sites (BS1& BS2) or recognizing an entirely new site on Aβ1-42. F-AI-182 can register different complementary binding sites in relation to Aβ-pathophysiology compared to current agents.

Data set [2] has as its system Aβ plaques. Nature of the data set: Staining of human AD brain tissue sections. It is filed as binding. Conditions: person with AD. The procedure:
Staining experiments were performed with human brain tissues. Tissue samples were obtained from the frontal lobe of clinically and neuropathologically well-characterized cases. The neuropathological diagnosis of AD was based on the criteria of the Consortium to Establish a Registry for Alzheimer's Disease (CERAD) (Mirra, S., et al. The Consortium to Establish a Registry for Alzheimer's Disease (CERAD). Part II. Standardization of the neuropathologic assessment of Alzheimer's disease. Neurology 41, 479-486 (1991)) or the National Institute of Aging-Reagan Institute (NIA-RI) (Hyman, B. & Trojanowski, J. Consensus recommendations for the postmortem diagnosis of Alzheimer disease from the National Institute on Aging and the Reagan Institute Working Group on diagnostic criteria for the neuropathological assessment of Alzheimer disease. J Neuropathol Exp Neurol 56, 1095-1097. (1997)). […]
The fluorescent probe (F-AI-183) labels fibrillar amyloid (arrow). The slides were analyzed on a using a Nikon Ti-E PFS inverted microscope equipped with a Nikon 10×0.3 NA Plan APO objective, Prior H117 ProScan flat top linear encoded stage, and Prior Lumen 200PRO illumination system with standard DAPI and FITC filter sets. […] Images were processed and analyzed using the Image J software package (NIH).

In the next data set the test system is BS1 and BS3 sites. Conditions: cited from earlier work.
The conditions of data set [3]: cited from earlier work.
For data set [4] the following is noted: cited from earlier work. This is another data set of the same source.
The next data set is described as follows: Stability in human serum. The data set is classed as in vitro ADME. An excerpt:
In various configurations, identified heterocyclic molecules can be assessed for metabolic stability for use in biomedical imaging applications both in vitro and in vivo using established procedures (e.g., Mathis, C., et al. Synthesis and evaluation of ^11C-labeled 6-substituted 2-arylbenzothiazoles as amyloid imaging agents. J. Med. Chem. 46, 2740-2754 (2003); Sharma, V. Radiopharmaceuticals for assessment of multidrug resistance P-glycoprotein-mediated transport activity. Bioconjug. Chem. 15, 1464-1474 (2004)). In some embodiments, ^18F-AI-182, another agent, or a combination thereof can be incubated in either serum or human serum albumin at time points corresponding to uptake in vivo (5 min to 2 h) and filtered through filters (30 kDa). Free and bound radiotracer can be calculated using previously describe methods (Bartholoma, M. D., et al. Effect of the prosthetic group on the pharmacologic properties of ^18F-labeled rhodamine B, a potential myocardial perfusion agent for positron emission tomography (PET). J Med Chem 55, 11004-11012 (2012)), and can be analyzed by radio-TLC scanner and radio-HPLC. […] Brain tissues, liver, and kidney can be removed (liver and kidney can be used to evaluate their metabolic stability in more stringent in vivo environments), sonicated, extracted and analyzed through radio-TLC and -HPLC.

Data set [5] is described as follows: Biodistribution study in normal FVB mice. To be noted: for tissue uptake at 5 min / tissue uptake at 120 min: mouse, intravenous. It is filed as in vivo, mouse. An excerpt: In various configurations, agents can be evaluated in part by exploring the tissue distribution and kinetics of ^18F-AI-182 or other agents in normal mice and transgenic mice. Because these heterocyclic molecules can be labeled with ^18F using the methods described herein, biodistribution in normal mice can be determined. In such investigations, BL/6 (control mice; Taconic) or APPsw^+/−/PS1 (transgenic, Taconic) mice can be anesthetized by isoflurane inhalation and injected with ^18F-AI-182 or other agents (20 μCi in 50-100 μl saline) via bolus injection through a tail vein. Animals can be sacrificed by cervical dislocation at 2, 30, 60, and 120 min post-injection (n=2-4) and data can be quantified into % ID/g as described (Sivapackiam, J., et al. Synthesis, molecular structure, and validation of metalloprobes for assessment of MDR1 P-glycoprotein-mediated functional transport. Dalton Trans 39, 5842-5850 (2010)). The brains can be removed and dissected into cerebellums and remaining whole brain fractions prior to weighing and counting to evaluate regional differences in the location of radiotracer in comparison with transgenic mice.
For in vivo imaging of Aβ plaques, the basic pharmacokinetic model in an unaffected normal brain involves high initial penetration of the agent, followed by rapid clearance due to lack of a binding target. However, in AD brains, high initial penetration can be followed by regional retention as the agent binds to Aβ thus leading to differential kinetics. To accomplish this objective, biodistribution studies of ^18F-AI-182 were performed in normal FVB mice for assessment of signal to noise ratios and clearance profiles. Brain uptake of ^18F-AI-182 was analyzed in terms of percent injected dose per gram of the brain tissue (% ID/g). […] This initial brain uptake value (5 min) in normal mice is approximately 15-fold high compared with our Aβ-targeted ^99mTc-Peptides (Harpstrite, S. E., Prior, J., Binz, K., Piwnica-Worms, D. & Sharma, V. ^99mTc-Peptide conjugates for imaging β-amyloid in the brain. ACS Med Chem Lett (2013) under review). […] Net brain uptake of ^18F-AI-182 is 1.2-fold higher than that of ^18F-AV-45. The initial data point for ^18F-AI-182 is at 5 min compared with 2 min for ^18F-AV-45.

Data set [6] is described as follows: Literature biodistribution in normal mice (Choi et al. 2009). The data set is classed as in vivo, mouse.
For data set [7] the following is noted: cited from earlier work; for brain uptake: normal mice.

T1 sequence (P05067 672-713 limits assumed): as above

For the compound `CN(C)c1ccc(/C=C/c2nc3cc(OCCF)ccc3[se]2)cn1` [F-AI-183], the “staining of brain tissue sections” value at Aβ plaques [1] is listed as “labeling of Aβ plaques”. The compound further had a Kd at preformed Aβ1-42 fibrils of 17 nM. For the same compound, the “detection of Aβ plaques in human AD brain cross-sections of frontal lobe” value with Aβ plaques [2] is given as “detection of compact Aβ plaques; also recorded: detected compact Aβ plaques”.

In turn, `CN(C)c1ncc(/C=C/c2nc3cc(OCCF)ccc3[se]2)cn1` [F-AI-187] yielded a Kd at preformed Aβ1-42 fibrils of 1.58 nM.

Consider `CC(=C(C#N)C#N)c1ccc2cc(N(C)CC[18F])ccc2c1` [FDDNP, 2-(1-(6-[(2-[18F]fluoroethyl)(methyl)amino]-2-naphthyl)ethylidene)malononitrile], for which, in the data set with BS1 and BS3 sites, the “affinity for BS1 and BS3 sites” value is reported as “low affinity”.

Take `[11CH3]Nc1ccc(/C=C/c2ccc(O)cc2)cc1` [SB-13, [^11C]4-N-methylamino-4′-hydroxystilbene]: the “biological half-life in serum” value in data set [3] was “low”.

On to `[11CH3]Nc1ccc(-c2nc3ccc(O)cc3s2)cc1` [^11C-PIB, 2-[p-(Methylamino)phenyl]-3-thia-1-aza-5-indanol], for which the metabolism in vivo entry in [4] is “facile metabolism”.

Take `CN(C)c1ccc(/C=C/c2nc3ccc(OCC[18F])cc3s2)cn1` [^18F-AI-182]: the “metabolism in human serum” value in “Stability in human serum” (human serum) is reported as “non-metabolized”. Besides, the “time until which non-metabolized in human serum” value in “Stability in human serum” (investigated highest time-point) is “about 30 min”. The tissue uptake at 5 min in data set [5] (FVB, kidney, normal mice, 5 min, read-out: kidney uptake) amounted to 6.76 ± 1.57 %ID/g; in data set [5] (FVB, liver, normal mice, 5 min, read-out: liver uptake), 16.3 ± 1.41 %ID/g; in data set [5] (brain, normal FVB mice, 5 min post tail-vein injection, read-out: brain uptake), 7.28 ± 0.46 %ID/g. Further, the tissue uptake at 120 min in data set [5] (FVB, kidney, normal mice, 120 min, read-out: kidney uptake) was determined as 1.57 ± 0.08 %ID/g; in data set [5] (FVB, liver, normal mice, 120 min, read-out: liver uptake), 2.71 ± 0.21 %ID/g; in data set [5] (brain, normal FVB mice, 120 min post tail-vein injection, read-out: brain uptake) it was 1.54 ± 0.06 %ID/g. Besides, in data set [5] (mice), the “penetration of brain / blood-brain barrier” value is “facile penetration of the blood-brain barrier (BBB)”. In addition, the “5 min/120 min brain clearance ratio” value in data set [5] (normal mice) came to 4.73. Further, the “initial brain uptake (5 min) compared with Aβ-targeted 99mTc-Peptides” value in data set [5] (normal mice) is “approximately 15 fold”. Moreover, the “net brain uptake relative to 18F-AV-45” value in [5] (normal mice) amounted to 1.2 fold. For the same compound, the “blood clearance faster than 18F-AV-45” value in data set [5] (normal mice, 5 min to 120 min) stood at 25%.

With `CNc1ccc(/C=C/c2ccc(OCCOCCOCC[18F])nc2)cc1` [^18F-AV-45], the metabolism in vivo result in [4] is listed as “facile metabolism”. Further, in data set [3], the “biological half-life in serum” value is on record as “low”. Further, the “2 min/120 min brain clearance ratio” value in [6] is given as 4.07. Also, the kidney uptake is 14.19±2.34 % ID/g in data set [7] (2 min) and 2.19±0.36 % ID/g in [7] (120 min). Moreover, in data set [7] (120 min), the liver uptake is on record as 4.96±0.90 % ID/g. In addition, the values for the brain uptake in data set [7] (2 min post-injection) and in data set [7] (120 min post-injection) were 7.33±1.54 % ID/g and 1.80±0.07 % ID/g, respectively.

As usually defined, the Kd is the concentration at which binding is half-saturated.

Values taken from patent publication US10335504B2, “Heterocyclic molecules for biomedical imaging and therapeutic applications” (Washington University, priority 2013, dated 2019).
